From patent publication US12304898B2, “Quinolyl-containing compound and pharmaceutical composition, and use thereof” (PrimeGene (Beijing) Co., Ltd., priority 2019, dated 2025) come the findings set out here.

A value given as a limit tells only on which side of the number the result lay.

In data set [1] the target is VEGFR2 (KDR) (Homo sapiens (Human), UniProt P35968). Kind of data set: VEGFR2 (KDR) mobility shift assay. Type of data set: biochemical. To be noted: VEGFR2 0.5 nM, ATP 95 μM, read-out: IC50, inhibitory effect on kinase VEGFR2. How it is done:
Detect compounds on VEGFR2 (KDR) by mobility shift assay. The initial test concentration of a compound was 1000 nM, 3 times dilution, 10 concentrations, and detection in duplicate. Nintedanib (Selleckchem, Cat. S1010) was used as the positive control compound. The operation method was briefly described as follows: kinase VEGFR2 (Carna, Cat. 08-191) at the final concentration of 0.5 nM and the test compound were mixed in the Optiplate-384F well plate and incubated for 10 minutes at room temperature. Then, ATP at a final concentration of 95 μM and 3 μM Kinase substrate 22 (Gill Biochemical (glbiochem), Cat. 112393) were added. After mixing, react at room temperature for 30 minutes. Add stop detection solution to terminate the reaction and read the conversion rate with Caliper EZ ReaderlI.
Wherein, Conversion %_sample refers to the conversion rate reading of the sample; Conversion %_min: the average value of the negative control wells, which represents the conversion rate readings of the wells without enzyme activity; Conversion %_max: the average value of the positive control wells, represents the conversion rate readings of the wells without compound inhibition.
Fitting the dose-response curve: Take the log of the concentration as the X-axis, and the percentage of inhibition rate as the Y-axis. The dose response curve was fitted by the analysis software GraphPad Prism 5 with log(inhibitor) vs. response—Variable slope to obtain the inhibitory activity (IC50) of each compound.

Data set [2] addresses HDAC6 (Homo sapiens (Human), UniProt Q9UBN7). Kind of data set: HDAC6 fluorescence analysis, inhibition of HDAC6 activity. The format is biochemical. To be noted: HDAC6 0.3 nM solution, substrate 15 μM, fluorescence readout; read-out: IC50, inhibitory effect on HDAC6. How it is done: HDAC6 fluorescence analysis method was used to detect the inhibitory effect of the compounds on the activity of HDAC6. The specific operation is as follows:
Prepare a 10 mM stock solution of a compound with DMSO. Take 10 μl of stock solution and dilute with 90 μl DMSO to become a 1 mM working solution. […] Add 3 μl of each concentration to 197 μl reaction buffer (20 mM Hepes pH 8.0, 137 mM NaCl, 2.7 mM KCl, 1 mM MgCl2, 0.05% BSA, 0.5 mM TCEP), mix well and add 10 μl to a 384-well plate. In the final reaction system, the concentrations of the compound were 10 μM to 0.51 nM. Duplicate, and add 10 μl 3XHDAC solution (BPS, Cat. 50006, 0.3 nM) to each well, followed by incubating at 23° C. for 20 minutes. Then, add 3× substrate solution (Anaspec, Cat. 61855, 15 μM), centrifuge to mix, and incubate at 23° C. for 90 minutes. Add 30 μl trypsin/SAHA mixture (20 mM Hepes pH 8.0, 100 mM NaCl, 10 mM SAHA, 0.01 mg/ml trypsin), incubate at 23° C. for 60 minutes to terminate the reaction. Finally, read fluorescence data by Envision (390 nm excitation, 460 nm emission). […] Finally, analyze the data by XLfit5 software and calculate the IC50 value of the compound. Vorinostat (SAHA) was a positive reference compound.

Data set [3] is described as follows: Pharmacokinetic experiment in rats after intragastric administration. Type of data set: in vivo. To be noted: rat, po, female SD rats, 10 mg/kg, plasma. How it is done:
The female SD rats were divided into groups, 3 rats in each group, and the example compounds 10, 12, 24, 57, 61, 89, 90, 93, 94, 96 (10 mg/kg) were administered by intragastric administration. Fasting overnight before administration, and the fasting time was from 10 hours before administration to 4 hours after administration. Blood was collected at 0.25, 0.5, 1, 2, 4, 8 and 24 hours after administration. Small animal anesthesia machine was used for isoflurane anesthesia. After that, 0.3 mL of whole blood was collected from the fundus venous plexus and placed in a heparin anticoagulation tube. The sample was centrifuged at 4° C., 4000 rpm, for 5 minutes, and the plasma was transferred to a centrifuge tube, and stored at −80° C. until analysis. The plasma sample was extracted by protein precipitation method, and the extract was processed and analyzed by LC/MS/MS.

Chain of HDAC6 (Q9UBN7 whole entry): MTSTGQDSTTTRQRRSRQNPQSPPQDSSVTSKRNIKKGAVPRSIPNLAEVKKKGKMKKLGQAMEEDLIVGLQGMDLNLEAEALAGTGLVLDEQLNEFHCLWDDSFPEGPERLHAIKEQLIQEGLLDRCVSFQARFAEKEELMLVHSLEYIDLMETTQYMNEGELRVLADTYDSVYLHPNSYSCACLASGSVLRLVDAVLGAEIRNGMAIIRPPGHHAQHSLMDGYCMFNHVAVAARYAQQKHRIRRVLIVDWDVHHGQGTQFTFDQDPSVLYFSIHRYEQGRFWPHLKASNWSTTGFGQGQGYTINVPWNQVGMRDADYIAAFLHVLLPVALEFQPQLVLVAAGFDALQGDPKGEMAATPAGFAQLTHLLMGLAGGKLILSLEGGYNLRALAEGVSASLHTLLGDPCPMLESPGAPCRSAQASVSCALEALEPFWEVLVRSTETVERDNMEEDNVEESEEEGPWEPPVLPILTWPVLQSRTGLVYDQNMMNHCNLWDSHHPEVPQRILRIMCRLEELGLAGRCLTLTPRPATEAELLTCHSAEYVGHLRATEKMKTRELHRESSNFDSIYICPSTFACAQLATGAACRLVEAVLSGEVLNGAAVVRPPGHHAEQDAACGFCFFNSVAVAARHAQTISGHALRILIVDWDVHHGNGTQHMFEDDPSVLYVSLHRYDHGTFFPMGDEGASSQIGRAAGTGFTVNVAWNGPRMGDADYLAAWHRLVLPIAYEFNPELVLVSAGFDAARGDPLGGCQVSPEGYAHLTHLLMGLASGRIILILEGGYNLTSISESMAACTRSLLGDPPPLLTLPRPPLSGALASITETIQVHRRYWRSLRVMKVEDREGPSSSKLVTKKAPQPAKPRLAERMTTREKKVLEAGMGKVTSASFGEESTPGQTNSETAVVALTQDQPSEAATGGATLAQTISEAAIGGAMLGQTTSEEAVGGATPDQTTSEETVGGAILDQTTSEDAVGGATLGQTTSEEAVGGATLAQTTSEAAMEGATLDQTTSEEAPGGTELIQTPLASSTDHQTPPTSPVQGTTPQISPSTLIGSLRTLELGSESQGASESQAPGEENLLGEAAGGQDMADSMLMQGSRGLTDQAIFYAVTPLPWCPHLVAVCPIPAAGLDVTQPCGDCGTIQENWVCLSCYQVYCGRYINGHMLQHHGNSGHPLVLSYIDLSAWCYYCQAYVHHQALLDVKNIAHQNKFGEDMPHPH
Chain of VEGFR2 (KDR) (P35968 790-1356): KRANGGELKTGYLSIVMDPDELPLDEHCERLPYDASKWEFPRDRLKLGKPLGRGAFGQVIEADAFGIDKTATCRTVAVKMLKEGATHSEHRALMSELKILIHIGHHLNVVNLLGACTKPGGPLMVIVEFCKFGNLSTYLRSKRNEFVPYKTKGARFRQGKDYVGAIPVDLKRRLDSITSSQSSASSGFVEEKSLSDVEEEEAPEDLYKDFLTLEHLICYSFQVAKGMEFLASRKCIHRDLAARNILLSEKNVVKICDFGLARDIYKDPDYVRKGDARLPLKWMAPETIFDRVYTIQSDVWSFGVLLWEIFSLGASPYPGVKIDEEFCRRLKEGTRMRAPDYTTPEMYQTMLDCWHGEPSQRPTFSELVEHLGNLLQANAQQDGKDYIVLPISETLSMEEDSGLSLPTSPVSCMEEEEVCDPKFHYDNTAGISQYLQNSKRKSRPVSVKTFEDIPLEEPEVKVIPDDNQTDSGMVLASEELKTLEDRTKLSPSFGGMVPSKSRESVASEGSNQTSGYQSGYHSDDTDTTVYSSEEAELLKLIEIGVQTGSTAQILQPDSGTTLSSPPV

`COc1cc2c(Oc3ccc(NC(=O)C4(C(=O)Nc5ccc(F)cc5)CC4)cc3F)ccnc2cc1OCCCCSC(C)=O` [Example 6, S-(4-((4-(2-Fluoro-4-(1-((4-fluorophenyl)aminoformyl)cyclopropane-1-carboxamido)phenoxy)-6-methoxyquinolin-7-yl)oxy)butyl)-acetylthioester]: in data set [1], the IC50 was 79 nM.

In the case of `COc1cc2c(Oc3ccc(NC(=O)C4(C(=O)Nc5ccc(F)cc5)CC4)cc3F)ccnc2cc1OC/C=C/CCCCS` [Example 25, (E)-N-(3-fluoro-4-((7-((7-mercaptoheptyl-2-en-1-yl)oxy)-6-methoxyquinolin-4-yl)oxy)phenyl)-N-(4-fluorophenyl)cyclopropane-1,1-diformamide], the IC50 in data set [2] came out at 34.8 nM; in data set [1], 79 nM.

`CC(=O)SCC(=O)NCCCCCOc1cc2nccc(Oc3ccc(NC(=O)NC4CC4)c(Cl)c3)c2cc1C(N)=O` [Example 69, S-(2-((5-((6-carbamoyl-4-(3-chloro-4-(3-cyclopropylurea)phenoxy)quinolin-7-yl)oxy)pentyl)amino)-2-oxo-ethyl)thioacetate]: the IC50 turned out to be 8.94 nM in data set [2] and 0.96 nM in data set [1].

With `COc1cc2c(Oc3ccc(NC(=O)C4(C(=O)Nc5ccc(F)cc5)CC4)cc3F)ccnc2cc1OCCCCNC(=O)CS` [Example 62], the IC50 in data set [2] stood at 16.3 nM; in data set [1], 17 nM.

In the case of `COc1cc2c(Oc3ccc(NC(=O)C4(C(=O)Nc5ccc(F)cc5)CC4)cc3F)ccnc2cc1OCCCCCCCSC(C)=O` [Example 12, S-(7-((4-(2-fluoro-4-(1-((4-fluorophenyl)aminoformyl)cyclopropane-1-carboxamido)phenoxy)-6-methoxyquinolin-7-yl)oxy)heptyl)-acetylthioester], the IC50 in data set [2] stood at 67.8 nM. In addition, in data set [3], the AUC(0-inf) is 1870 ng·h/mL, the peak level (Cmax) was 946 ng/mL, the Tmax came out at 60 min and the half-life is 180 min.

Regarding `COc1cc2c(Oc3ccc(NC(=O)C4(C(=O)Nc5ccc(F)cc5)CC4)cc3F)ccnc2cc1OCCCCCCCS` [Example 13, N-(3-fluoro-4-((7-(7-mercaptoheptyloxy)-6-methoxyquinolin-4-yl)oxy)phenyl)-N-(4-fluorophenyl) cyclopropane-1,1-diformamide], the IC50 in data set [2] was 18 nM.

Turning to `CC(=O)SCCCCCCOc1cc2nccc(Oc3ccc(NC(=O)NC4CC4)c(Cl)c3)c2cc1C(N)=O` [Example 86, S-(7-((6-carbamoyl-4-(3-chloro-4-(3-cyclopropylurea)phenoxy)quinolin-7-yl)oxy)hexyl)thioacetate], the IC50 in data set [1] was 2.6 nM.

As for `COc1cc2c(Oc3ccc(NC(=O)C4(C(=O)Nc5ccc(F)cc5)CC4)cc3F)ccnc2cc1OC/C=C/CCCS` [Example 27, (E)-N-(3-fluoro-4-((7-((6-mercaptohexyl-2-en-1-yl)oxy)-6-methoxyquinolin-4-yl)oxy)phenyl)-N-(4-fluorophenyl)cyclopropane-1,1-dimethylamid], the IC50 in data set [1] came to 33 nM.

Consider `CC(=O)SCC(=O)NCCCCCOc1cc2nccc(Oc3ccc(NC(=O)C4(C(=O)Nc5ccc(F)cc5)CC4)cc3F)c2cc1C(N)=O` [Example 71, S-(2-((5-((6-carbamoyl-4-(2-fluoro-4-(1-((4-fluorophenyl)carbamoyl)cyclopropane-1-methylamido)phenoxy)quinolin-7-yl)oxy)pentyl)amino)-2-oxo-ethyl)thioacetate], for which the IC50 in data set [2] is 27 nM; in data set [1] it was 4.6 nM.

Consider `COc1cc2c(Oc3ccc(NC(=O)C4(C(=O)Nc5ccc(F)cc5)CC4)cc3F)ccnc2cc1OCCCCS` [Example 7, N-(3-fluoro-4-((7-(4-mercaptobutoxy)-6-methoxyquinolin-4-yl)oxy)phenyl)-N-(4-fluorophenyl) cyclopropane-1,1-diformamide], for which the IC50 in data set [1] was determined as 57 nM.

`COc1cc2c(Oc3ccc(NC(=O)C4(C(=O)Nc5ccc(F)cc5)CC4)cc3)ccnc2cc1OCCCCCNC(=O)CSC(C)=O` [Example 65]: the IC50 in data set [1] amounted to 13 nM.

Take `COc1cc2c(Oc3ccc(NC(=O)C4(C(=O)Nc5ccc(F)cc5)CC4)cc3F)ccnc2cc1OCCCCCCNC(=O)CS` [Example 64]: the IC50 was 28.8 nM in data set [2] and 51 nM in data set [1].

Take `COc1cc2c(Oc3ccc(NC(=O)C4(C(=O)Nc5ccc(F)cc5)CC4)cc3F)ccnc2cc1OCCNC(=O)NCCSC(C)=O` [Example 55]: the IC50 in data set [1] was found to be 30 nM.

Consider `COc1cc2nccc(Oc3ccc(NC(=O)C4(C(=O)Nc5ccc(F)cc5)CC4)cc3)c2cc1OC` [Cabozantinib, reference compound], for which the IC50 in data set [2] was above 10000 nM.

`COc1cc2c(Oc3ccc(NC(=O)C4(C(=O)Nc5ccc(F)cc5)CC4)cc3F)ccnc2cc1OCCCCCNC(=O)CSC(C)=O` [Example 57, S-(2-((5-((4-(2-fluoro-4-(1-((4-fluorophenyl)carbamoyl)cyclopropane-1-carboxamido)phenoxy)-6-methoxyquinolin-7-yl)oxy)pentyl)amino)-2-oxo-ethyl)thioacetate]: in data set [3], the AUC(0-inf) worked out at 2790 ng·h/mL, the Cmax stood at 1590 ng/mL, the Tmax was 19.8 min and the half-life is 385 min.

As for `COc1cc2c(Oc3ccc(NC(=O)C4(C(=O)Nc5ccc(F)cc5)CC4)cc3F)ccnc2cc1OCCCSc1nnc(S)s1` [Example 54, N-(3-fluoro-4-((7-(3-((5-thio-1,3,4-trithiazol-2-yl)sulfanyl)propoxy)-6-methoxyquinolin-4-yl)oxy)phenyl)-N-(4-fluorophenyl)cyclopropane-1,1-diformamide], the IC50 in data set [1] was 54 nM.

What is called IC50 is the midpoint of a concentration-inhibition curve. The term AUC(0-inf) denotes total exposure, with the tail of the curve extrapolated. Low readings indicate low exposure, high ones high exposure. One may read the Cmax as the highest concentration seen after dosing. As usually defined, the Tmax is the time at which the peak concentration occurs. Broadly, the half-life is how long it takes for the measured level to halve. High values mean slow decline, low ones rapid decline.
